Key:
[1] = tested on: SNK-6 (IL-2 2.5 ng/mL); experiment: percent inhibition of viability; higher = more inhibition; conditions: 72 h
[2] = tested on: NKL (IL-2 2.5 ng/mL); experiment: as above; conditions: 72 h
[3] = tested on: YT (IL-2 2.5 ng/mL); experiment: as above; conditions: 72 h
[4] = tested on: normal primary NK cells, pool 1 (3 donors), resting (IL-2 0 ng/mL); experiment: as above; conditions: 72 h
[5] = tested on: NK-YS (IL-2 2.5 ng/mL); experiment: as above; conditions: 72 h
[6] = tested on: KHYG-1 (IL-2 2.5 ng/mL); experiment: as above; conditions: 72 h
[7] = tested on: NK-92 (IL-2 2.5 ng/mL); experiment: as above; conditions: 72 h
[8] = tested on: KAI3 (IL-2 2.5 ng/mL); experiment: as above; conditions: 72 h
[9] = tested on: normal primary NK cells, pool 2 (3 donors) (IL-2 2.5 ng/mL); experiment: as above; conditions: 72 h
[10] = tested on: normal primary NK cells, pool 3 (3 donors) (IL-2 2.5 ng/mL); experiment: as above; conditions: 72 h
[11] = tested on: DERL-7 (IL-2 2.5 ng/mL); experiment: as above; conditions: 72 h
[12] = tested on: normal primary NK cells, pool 1 (3 donors) (IL-2 2.5 ng/mL); experiment: as above; conditions: 72 h
[13] = tested on: IMC-1 (IL-2 20 ng/mL); experiment: as above; conditions: 72 h
[14] = tested on: normal NK cells expanded with K562-aAPC; experiment: drug sensitivity score (DSS) (DSS units); higher = more sensitive; extreme values may be limits of the assay; conditions: 72 h; IL-2 2.5 ng/mL
Procedure: (§1)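 Drug sensitivity and resistance testing on K562-aAPC-expanded normal NK cells: 5 concentrations (10-fold steps over a 10,000-fold range), 72 h at 37 °C, viability by CellTiter-Glo normalised to DMSO and benzethonium chloride controls; DSS from the fitted curve.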

[15] = tested on: normal NK cells expanded with K562-aAPC; experiment: percent inhibition of viability; higher = more inhibition; conditions: 72 h, IL-2 2.5 ng/mL
Procedure: as §1

[16] = tested on: SNK-6 (IL-2 2.5 ng/mL); experiment: drug sensitivity score (DSS) (DSS units); higher = more sensitive; extreme values may be limits of the assay; conditions: 72 h
[17] = tested on: NKL (IL-2 2.5 ng/mL); experiment: as above; conditions: 72 h
[18] = tested on: YT (IL-2 2.5 ng/mL); experiment: as above; conditions: 72 h
[19] = tested on: normal primary NK cells, pool 1 (3 donors), resting (IL-2 0 ng/mL); experiment: as above; conditions: 72 h
[20] = tested on: NK-YS (IL-2 2.5 ng/mL); experiment: as above; conditions: 72 h
[21] = tested on: KHYG-1 (IL-2 2.5 ng/mL); experiment: as above; conditions: 72 h
[22] = tested on: NK-92 (IL-2 2.5 ng/mL); experiment: as above; conditions: 72 h
[23] = tested on: KAI3 (IL-2 2.5 ng/mL); experiment: as above; conditions: 72 h
[24] = tested on: normal primary NK cells, pool 2 (3 donors) (IL-2 2.5 ng/mL); experiment: as above; conditions: 72 h
[25] = tested on: normal primary NK cells, pool 3 (3 donors) (IL-2 2.5 ng/mL); experiment: as above; conditions: 72 h
[26] = tested on: DERL-7 (IL-2 2.5 ng/mL); experiment: as above; conditions: 72 h
[27] = tested on: normal primary NK cells, pool 1 (3 donors) (IL-2 2.5 ng/mL); experiment: as above; conditions: 72 h
[28] = tested on: IMC-1 (IL-2 20 ng/mL); experiment: as above; conditions: 72 h

O=[N+]([O-])c1ccc2c(c1)S(=O)(=O)C=C2 [Stattic] (max concentration tested 50000 nM)
percent inhibition of viability [%]
Conditions	5 nM	50 nM	500 nM	5000 nM	50000 nM
[1]	4.25	-11.5	-24.7	100	100
[2]	-2.42	-9.08	-17.6	52.9	97.8
[3]	-7.41	-5.02	-6.62	99.5	99.9
[4]	-24.1	-39.5	15.7	93.9	100
[5]	-2.31	-3.08	-1.75	31.7	98.3
[6]	-5.88	-5.42	-4.14	99.4	99.5
[7]	-16.4	-10.7	-9.15	100	99.3
[8]	-6.42	3	11.7	101	100
[9]	-5.68	1.61	1.47	96.5	99.9
[10]	-6.16	-7.86	-9.75	99.1	101
[11]	-5.69	0.09	8.66	100	100
[12]	-14.2	-14	11.9	98.5	100
[13]	-3.55	-2.13	-12.2	-14.1	99.9
[15]	-4.23	-7.77	-7.3	100	100

Conditions	drug sensitivity score
[14]	17.4
[16]	16.6
[17]	11.8
[18]	17.3
[19]	19.4
[20]	9.96
[21]	17.5
[22]	17.3
[23]	19.9
[24]	17.7
[25]	17.1
[26]	19.4
[27]	19.9
[28]	4.71

CO[C@H]1/C=C\C=C(/C)C(=O)NC2=CC(=O)C(NCCN(C)C)=C(C[C@@H](C)C[C@H](OC)[C@H](O)[C@@H](C)/C=C(\C)[C@@H]1OC(N)=O)C2=O [Alvespimycin] (max concentration tested 1000 nM)
percent inhibition of viability [%]
Conditions	0.1 nM	1 nM	10 nM	100 nM	1000 nM
[1]	11.2	9.82	13.6	97.6	91.2
[2]	-9.27	5.22	1.11	89.3	90.7
[3]	-0.99	6.65	4.58	35.5	97
[4]	9.61	-5.61	24.6	26.1	42
[5]	-5	5.02	9.34	96.8	105
[6]	-3.99	2.16	2.52	55.2	107
[7]	-5.39	0.79	7.9	62.4	105
[8]	3.95	3.1	8.75	78.1	104
[9]	-14.3	-3.64	14.4	68.9	82.6
[10]	-14.3	-9.11	6.58	46.3	85.2
[11]	-2.47	-2.74	9.85	73.2	101
[12]	9.22	-0.64	16.4	73	87
[13]	-5.23	4.85	1.66	16.1	101
[15]	-6.1	-4.9	-1.57	67.3	100

Conditions	drug sensitivity score
[14]	13.3
[16]	19.9
[17]	16.4
[18]	9.86
[19]	7.28
[20]	19.2
[21]	12.2
[22]	13.3
[23]	15.7
[24]	14.8
[25]	10.3
[26]	15.1
[27]	15.5
[28]	8.22

CC(C)(C)Cn1c(N)nc2ccc(-c3[nH]c(C(C)(C)C)nc3-c3ccc(F)cc3)nc21 [Ralimetinib] (max concentration tested 10000 nM)
percent inhibition of viability [%]
Conditions	1 nM	10 nM	100 nM	1000 nM	10000 nM
[1]	-2.2	-16	-17.2	-21.4	9.93
[2]	0.97	4.97	7.92	17.1	70
[3]	1.29	1.91	4.09	6.38	55.6
[4]	-14.8	-29.1	-0.22	-17.7	77
[5]	-3.85	0.83	1.68	3.41	13.1
[6]	-1.88	-3.23	-1.97	1.06	46.9
[7]	-0.07	2.05	1.85	13.3	86.5
[8]	5.37	12.8	12.9	10.1	11
[9]	-10.8	-12.4	-9.11	-7.41	31.4
[10]	-7.2	-12.3	-15.7	-6.16	11.3
[11]	-0.84	3.26	3.67	8.89	48.2
[12]	-10.9	-14.6	6.91	-4.19	51.1
[13]	-2.69	-3.53	-8.24	-9.02	-12.2
[15]	-3.87	-2.62	-1.53	-3.78	1.72

Conditions	drug sensitivity score
[14]	0
[16]	0
[17]	6.44
[18]	4.06
[19]	3.35
[20]	0.28
[21]	2.57
[22]	7.03
[23]	0
[24]	1.04
[25]	0
[26]	4
[27]	2.38
[28]	0

From the supplement of paper PMC5908809
